Assay results published in patent publication US10689342B2, “Aza-tanshinone derivatives, process for their preparation and their use in therapy” (UNIVERSITA' DEGLI STUDI DI MILANO, priority 2016, dated 2020).

How the values were obtained:
[1] = biological target: T1, HuR-mRNA interaction (Homo sapiens, UniProt Q15717); test: AlphaScreen assay, inhibition of HuR-mRNA interaction; assay type: binding; conditions: for IC50: rHuR and biotinylated RNA probe
T1 construct: made in house; host or cells: HEK293T cells
Method: The full encoding sequence for human HuR/ELAVL1 gene (NM001419) has been amplified from cDNA obtained by retro-transcription from RNA of MCF7 cells and inserted into the pCMV6-AC-Myc-His PrecisionShuttle vector (Origene Technologies). The pCMV6-HuR recombinant vector has been transfected into HEK293T cells by using the transfection reagent Lipofectamine® 2000 (Life Technologies) according to the manufacturer protocol. HEK293T cells have been cultured in a complete medium (10% DMEM, 10% FBS, 2 mM Glutamine, 100 units/ml penicillin+100 μg/ml streptomycin) in humidified 5% CO2 atmosphere at 37° C.
Two types of assay have been performed, in order to define the profile of the aza-tanshinones and their inhibitory activity. REMSA (RNA-EMSA, RNA electrophoresis mobility shift assay) in 5% polyacrylamide gel requires the use of a RNA fluorescent probe (5′-Cy3-[…]), while the AlphaScreen assay required a RNA 5′-biotinylated probe (BiTNF, 5′-[…]). […] IC50 values have been obtained by means of non-linear regression of the fit of the log(dose) response by using the same software.

[2] = system: MDA-MB-231; test: Scratch assay; assay type: cell-based; conditions: 24 hours (DMSO 35 ± 1.92)
Method: (§1) Scratch assays have been carried out on 6-well plates and, after treatment for 24 hours with aza-tanshinone 26, the empty area of the scratched wells has been calculated by using the ImageJ software. The experiments have been carried out in duplicate.

[3] = system: PANC1; test: Scratch assay; assay type: cell-based; conditions: 24 hours
Method: as §1

[4] = system: MDA-MB-231 cells; test: xCELLigence trans-well migration assay; assay type: cell-based; conditions: MDA-MB-231, THP1-conditioned medium
Description: Migration assays have been carried out by using the xCELLigence RTCA DP Instrument (Roche) by seeding 5,000 cells/well at t0 in CIM-Plates-16 (Roche), using the 1% FBS medium (THP1 conditions) in the lower chamber and MDA-MB-231 cells seeded in the same way in the upper chamber. The ability of the MDA-MB-231 cells to migrate depends also on the presence of cytokines regulated by HuR in the surrounding environment.

[5] = system: TNF mRNA in MCF-7 breast cancer cells; test: Downregulation of TNF mRNA with LPS co-treatment; assay type: cell-based
Method: MCF-7 breast cancer cells (5*10^4/well) have been seeded in 6-well plates and cultured under standard conditions for 24 hours. The MCF-7 cells have then been treated for 3 hours in a complete medium with compound 26, or with DMSO/control vehicle. Three hours of treatment with DHTS in the MCF-7 cells have been enough to observe HuR-dependent post-transcriptional effects (44), whereby the same experimental conditions have been used here, including the co-treatment with lipopolysaccharide (LPS) as positive control to induce the TNF expression.

[6] = system: THP-1; test: alamar Blue viability assay; assay type: cell-based, human; conditions: for Viability: vs DMSO
Method: (§2) Tumor cell lines of metastatic breast cancer (MDA-MB-231), breast cancer (MCF7), human monocytic leukemia (THP-1) and pancreatic carcinoma (PANC-1) have been cultured in a complete DMEM or RPMI 1640 (Gibco Life Technologies) supplemented with 10% fetal bovine serum (FBS, Lonza), 2 mM L-glutamine and 100 U/ml penicillin-streptomycin (Lonza). The cell lines have been cultured at 37° C. in 5% CO2 and have been regularly tested for Mycoplasma contamination. The viability has been measured by means of alamar Blue assay (Thermo Fisher) under treatment for 24 hours with nanomolar to micromolar doses of aza-tanshinones. The mean viability and the standard deviation (SD) per each test compound have been obtained from the dose-response curves for triple doses (0.01, 0.1, 1. 10. 50 μM) in comparison with the control vehicle (DMSO).
(§3) The group of cell lines used in Paragraph 8.2, with the addition of the tumor cell lines of the metastatic breast cancer SK-BR-3 and of the colon adenocarcinoma SW-480, has been used to measure the IC50/cytotoxicity potency of compound 26. The viability assays have been performed as shown in Paragraph 8.2.

[7] = system: THP-1 human leukemia monocytes; test: Cytokine mRNA levels by Q-RT-PCR; assay type: cell-based; conditions: THP-1, LPS 26 vs LPS DMSO = 1
Method: THP-1 human leukemia monocytes (5*10^4/well) have been seeded in a 6-well plate and cultured under standard conditions for 24 hours as already described. The mRNA total levels for a group of cytokines have been quantified by means of standard quantitative real-time PCR (Q-RT-PCR). Two-way ANOVA has been applied for a statistical significance of the effects of compound 26 on the decrease of the mRNA of the cytokines.

[8] = system: SK-BR-3; test: alamar Blue viability assay; assay type: cell-based
Method: as §2, §3

[9] = system: PANC-1; test: alamar Blue viability assay; assay type: cell-based; conditions: for Viability: vs DMSO
Method: as §2, §3

[10] = system: MDA-MB-231; test: alamar Blue viability assay; assay type: cell-based; conditions: for Viability: vs DMSO
Method: as §2, §3

[11] = system: SW-480; test: alamar Blue viability assay; assay type: cell-based
Method: as §2, §3

[12] = system: MCF7; test: alamar Blue viability assay; assay type: cell-based; conditions: for Viability: vs DMSO
Method: as §2, §3

[13] = alamar Blue viability assay; assay type: cell-based, human; conditions: human, THP-1 cells (monocytic leukemia), 24 hours, vs DMSO; for viability at 24 h, 10 µM: THP1, 10 μM; for viability at 24 h, 50 µM: THP1, 50 μM
Method: as §2, §3

[14] = alamar Blue viability assay; assay type: cell-based; conditions: human, 24 hours, vs DMSO
Method: as §2, §3

[15] = MCF7 cells (breast cancer), MCF7, 10 μM
[16] = MCF7 cells (breast cancer), MCF7, 50 μM
[17] = MDA-MB-231 cells (metastatic breast cancer), MDA-MB-231, 10 μM
[18] = MDA-MB-231 cells (metastatic breast cancer), MDA-MB-231, 50 μM
[19] = PANC-1 cells (pancreatic carcinoma), PANC-1, 10 μM
[20] = PANC-1 cells (pancreatic carcinoma), PANC-1, 50 μM

T1 sequence (Q15717 whole entry): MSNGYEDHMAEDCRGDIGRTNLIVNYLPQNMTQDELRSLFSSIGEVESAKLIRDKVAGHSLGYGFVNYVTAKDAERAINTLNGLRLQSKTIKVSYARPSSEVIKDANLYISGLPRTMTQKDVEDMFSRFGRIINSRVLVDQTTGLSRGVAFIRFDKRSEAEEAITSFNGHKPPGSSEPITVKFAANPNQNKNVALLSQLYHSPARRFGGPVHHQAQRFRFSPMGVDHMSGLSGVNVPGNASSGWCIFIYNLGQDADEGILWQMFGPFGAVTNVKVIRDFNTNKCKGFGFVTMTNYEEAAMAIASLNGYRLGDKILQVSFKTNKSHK

COc1cccc(-c2cn(S(=O)(=O)c3ccccc3)c3c2C(=O)C(=O)C=C3)c1 [Compound 29, 1-Phenylsulfonyl-3-(m-methoxyphenyl)-4,5-dioxoindole]
IC50 [1]: 352 ± 57 nM

O=C1C=Cc2c(c(-c3ccccc3)cn2S(=O)(=O)c2ccccc2)C1=O [Compound 26, 1-Phenylsulfonyl-3-phenyl-4,5-dioxo indole]
empty area of the scratched wells ([2]; MDA-MB-231, 26 1 μM): 45 ± 4
empty area of the scratched wells ([2]; MDA-MB-231, 26 5 μM): 45 ± 1
empty area of the scratched wells ([3]; PANC1, 26 1 μM): 38 ± 7
empty area of the scratched wells ([3]; PANC1, 26 5 μM): 32 ± 0.01
Minimum of trans-well migration ([4]; 26 1 μM (LPS control 0.7176)): 0.1057
Maximum of trans-well migration ([4]; 26 1 μM (LPS control 3.053)): 1.246
Minimum of trans-well migration ([4]; 26 5 μM (LPS control 0.7176)): 0.1416
Maximum of trans-well migration ([4]; 26 5 μM (LPS control 3.053)): 0.3311
TNF mRNA level ([5]; MCF-7, LPS+26, 3 hours (LPS+DMSO 1.62)): 1.00
TNF RNA amount ([5]; MCF-7, LPS+26 relative to LPS+DMSO, 3 hours): 62%
reduction of the TNF mRNA with respect to the control ([5]; MCF-7, after 3 hours): 35%
IC50 ([6]; Homo sapiens, THP-1, cytotoxicity, 24 hours): 9770 ± 150 nM
% cell death ([6]; THP-1): 52%
CCL2 mRNA level [7]: 0.88
CCL5 mRNA level [7]: 0.51
CCL8 mRNA level [7]: 0.00
IFNA1 mRNA level [7]: 0.46
IFNB1 mRNA level [7]: 0.33
IFNG mRNA level [7]: 0.38
IL1A mRNA level [7]: 1.04
IL1B mRNA level [7]: 0.22
IL2 mRNA level [7]: 1.18
IL4 mRNA level [7]: 0.82
IL7 mRNA level [7]: 0.56
IL8 mRNA level [7]: 0.15
IL10 mRNA level [7]: 0.16
IL13 mRNA level [7]: 0.53
IL15 mRNA level [7]: 0.91
IL17A mRNA level [7]: 0.30
IL18 mRNA level [7]: 0.36
IL19 mRNA level [7]: 0.01
TNF mRNA level [7]: 0.38
IC50 ([8]; Homo sapiens, SK-BR-3, cytotoxicity, 24 hours): 5180 ± 110 nM
% cell death ([8]; SK-BR-3): 57%
IC50 ([9]; Homo sapiens, PANC-1, cytotoxicity, 24 hours): 6270 ± 70 nM
% cell death ([9]; PANC-1): 49%
IC50 ([10]; Homo sapiens, MDA-MB-231, cytotoxicity, 24 hours): 1570 ± 40 nM
% cell death ([10]; MDA-MB-231): 66%
IC50 ([11]; Homo sapiens, SW480, cytotoxicity, 24 hours): 4810 ± 230 nM
% cell death ([11]; SW480): 62%
IC50 ([12]; Homo sapiens, MCF7, cytotoxicity, 24 hours): 3850 ± 80 nM
% cell death ([12]; MCF7): 71%

O=C1C(=O)c2c(-c3ccccc3)cn(S(=O)(=O)c3ccccc3)c2C2=C1C1CCC2CC1 [Compound 32, 3-Phenyl-1-phenylsulfonyl-4,5-dioxo-6,9-ethanbenzo[g]indole]
IC50 [1]: 121 ± 55 nM
Viability ([6]; THP1, 10 μM, 24 hours): 0.55
Viability ([6]; THP1, 50 μM, 24 hours): 0.00
cell death ([6]; THP-1 cells, 10 μM): greater than 20%
Viability ([9]; PANC-1, 10 μM, 24 hours): 0.85
Viability ([9]; PANC-1, 50 μM, 24 hours): 0.15
Viability ([10]; MDA-MB-231, 10 μM, 24 hours): 1.00
Viability ([10]; MDA-MB-231, 50 μM, 24 hours): 0.28
Viability ([12]; MCF7, 10 μM, 24 hours): 1.09
Viability ([12]; MCF7, 50 μM, 24 hours): 0.14

O=C1C=Cc2c(c(-c3ccccc3)cn2S(=O)(=O)c2cccc(F)c2)C1=O [Compound 27, 1-(m-Fluorophenylsulfonyl)-3-phenyl-4,5-dioxo indole]
IC50 [1]: 251 ± 31 nM
viability at 24 h, 10 µM [13]: 83%
viability at 24 h, 50 µM [13]: 32%
viability at 24 h, 10 µM [14, 15]: 108%
viability at 24 h, 50 µM [14, 16]: 79%
viability at 24 h, 10 µM [14, 17]: 103%
viability at 24 h, 50 µM [14, 18]: 51%
viability at 24 h, 10 µM [14, 19]: 102%
viability at 24 h, 50 µM [14, 20]: 20%

O=C1C=Cc2c(c(-c3ccccc3)cn2S(=O)(=O)c2ccc([N+](=O)[O-])cc2)C1=O [Compound 23, 1-(p-Nitrophenylsulfonyl)-3-phenyl-4,5-dioxo indole]
IC50 [1]: 241 ± 42 nM
viability at 24 h, 10 µM [13]: 98%
viability at 24 h, 50 µM [13]: 31%
viability at 24 h, 10 µM [14, 15]: 100%
viability at 24 h, 50 µM [14, 16]: 66%
viability at 24 h, 10 µM [14, 17]: 104%
viability at 24 h, 50 µM [14, 18]: 80%
viability at 24 h, 10 µM [14, 19]: 92%
viability at 24 h, 50 µM [14, 20]: 36%

Cc1cccc2c3c(ccc12)C1=C(C(=O)C3=O)[C@@H](C)CO1 [DHTS, Dihydrotanshinone, reference compound]
Ki ([1]; 1-site competition model, RNA 50 nM, Kd 2.5 nM, read-out: Complete Ki): 3.74 ± 1.63 nM
IC50 [1]: 149 ± 34 nM

O=C1C=Cc2c(c(-c3ccccc3)cn2S(=O)(=O)c2ccc(F)cc2)C1=O [Compound 25, 1-(p-Fluorophenylsulfonyl)-3-phenyl-4,5-dioxo indole]
viability at 24 h, 10 µM [13]: 100%
viability at 24 h, 50 µM [13]: 35%
viability at 24 h, 10 µM [14, 15]: 100%
viability at 24 h, 50 µM [14, 16]: 63%
viability at 24 h, 10 µM [14, 17]: 103%
viability at 24 h, 50 µM [14, 18]: 50%
viability at 24 h, 10 µM [14, 19]: 100%
viability at 24 h, 50 µM [14, 20]: 29%

COc1ccc(-c2cn(S(=O)(=O)c3ccccc3)c3c2C(=O)C(=O)C=C3)cc1 [Compound 28, 1-phenylsulfonyl-3-(p-methoxyphenyl)-4,5-dioxo indole]
IC50 [1]: 287 ± 30 nM
viability at 24 h, 10 µM [13]: 105%
viability at 24 h, 50 µM [13]: 46%
viability at 24 h, 10 µM [14, 15]: 91%
viability at 24 h, 50 µM [14, 16]: 75%
viability at 24 h, 10 µM [14, 17]: 106%
viability at 24 h, 50 µM [14, 18]: 57%
viability at 24 h, 10 µM [14, 19]: 90%
viability at 24 h, 50 µM [14, 20]: 32%

O=C1C=Cc2c(c(-c3ccccc3)cn2S(=O)(=O)c2cccc([N+](=O)[O-])c2)C1=O [Compound 24, 1-(m-Nitrophenylsulfonyl)-3-phenyl-4,5-dioxoindole]
IC50 [1]: 342 ± 64 nM
viability at 24 h, 10 µM [13]: 100%
viability at 24 h, 50 µM [13]: 27%
viability at 24 h, 10 µM [14, 15]: 100%
viability at 24 h, 50 µM [14, 16]: 54%
viability at 24 h, 10 µM [14, 17]: 94%
viability at 24 h, 50 µM [14, 18]: 36%
viability at 24 h, 10 µM [14, 19]: 91%
viability at 24 h, 50 µM [14, 20]: 20%
